How the values were obtained:
in vitro = conditions: African green monkey
Ebola virus = assay: microbe, parasite or virus in culture; format: cell-based; conditions: Zaire ebolavirus, Vero C1008

| Structure (SMILES) | CC50 (in vitro) [µM] | EC50 (Ebola virus) [µM] |
| --- | --- | --- |
| C[C@H](NP(=O)(OC[C@@]1(N=[N+]=[N-])O[C@@H](n2ccc(=O)[nH]c2=O)[C@H](O)[C@@H]1O)Oc1cccc2ccccc12)C(=O)OCc1ccccc1 (stereo partly drawn) [Compound I-6, 4′-Azidouridine-5′-(O-1-naphthyl-N-(S)-1-(benzyloxycarbonyl)ethyl phosphoramidate] | > 50 | < 20 |
| [N-]=[N+]=N[C@]1(CO)O[C@@H](n2ccc(N)nc2=O)[C@H](F)[C@@H]1O [Compound I-17, 4′-Azido-2′-deoxy-2′-fluorocytidine] | > 50 | < 20 |
| [N-]=[N+]=N[C@]1(CO)O[C@@H](n2cnc3c(=O)[nH]c(N)nc32)[C@H](F)[C@@H]1O [Compound I-47, 4′-Azido-2′-deoxy-2′-fluoroguanosine] | > 50 | < 20 |
| [N-]=[N+]=N[C@]1(CO)O[C@@H](n2cnc3c(=O)[nH]c(N)nc32)[C@H](O)[C@@H]1O [Compound I-48, 4′-Azidoguanosine] | > 50 | < 50 |
